From a melting point compilation (Tetko et al.; mined from patent text by program, amines drawn as free bases though some values may be those of a salt) come the findings set out here.

Molecules are shown by their SMILES.

In general, melting point refers to the temperature, or range, at which the solid turns liquid. With `CN(C)c1ccc(C(=S)Nc2ccc([N+](=O)[O-])cc2)cc1`, the melting point amounted to 210 °C.
Next, `CC(=O)C=C1C=C(C(C)(C)C)C(=O)C(C(C)(C)C)=C1`: 70 to 72 °C.
The result for `CN(C)CCOC(=O)C1CCc2c([nH]c3ccc(Cl)cc23)C1` (stereo unspecified) reads 123 to 124 °C; that for `O=C(O)C(Cl)(Cl)CCCCCCCCCCOc1ccc(Cl)cc1`, 63 to 64 °C.
Next, `CCC1(CCCCCl)C(=O)Nc2c(C)cccc21` (stereo unspecified): 112 to 113 °C.
As for `CCOc1ccc(C2=CC(C)(C)Oc3c(OCC)cc(Cc4cnc(N)nc4N)cc32)cc1`, the melting point lay within 186 to 188 °C.
`O=C1C(c2c[nH]c3ccccc23)C(c2c[nH]c3ccccc23)C(=O)N1c1ccccc1` (stereo unspecified) came in with a melting point of 260 to 263 °C.
Consider `CCOC(=O)c1ccc2c(c1)CCC(COS(=O)(=O)c1ccc(C)cc1)C2` (stereo unspecified), for which the melting point fell in the range of 76 to 78 °C.
The result for `Cc1cc2nc(Cl)sc2cc1C` reads 175 °C.
As for `CC1CNCCNCCNCCNCCN1` (stereo unspecified), the melting point lay in the range of 73 to 75 °C.
In turn, `COc1ccc(-c2c(Cl)c(CN3C(=O)c4ccccc4C3=O)nc3sc4c(c23)CCS(=O)(=O)C4)cc1` returned a melting point of 298 to 299 °C.
Next, `O=C(O)c1cn(-c2ccc(F)cc2F)c2cc(Cl)c(F)cc2c1=O`: 90 to 92 °C; `COc1cc2cc(C(=O)N3CC(COS(C)(=O)=O)c4c3cc([N+](=O)[O-])c3ccccc43)[nH]c2c(OC)c1OC` (stereo unspecified): 214 °C; `CC(=O)OC1CSC(Oc2cccc(-c3ccncc3Cl)c2)C(OC(C)=O)C1OC(C)=O` (stereo unspecified): 169 to 171 °C.
Next, `CNC(=O)c1ccc(F)c2c1CC(N(CCCCc1c[nH]c3ccc(F)cc13)C1CCC1)CO2` (stereo unspecified): 123 °C; `O=C(O)CCC(CCCCNS(=O)(=O)c1ccc(Cl)cc1)CCOc1cccnc1` (stereo unspecified): 86 to 88 °C; `COc1ccccc1-n1c(=O)[nH]c2cccnc21`: 130 °C.
The result for `Cc1ccc(CCO)c(NCc2ccc3nc(NCCCN4CCOCC4)n(Cc4ncccc4O)c3c2)c1` reads 192 °C; that for `Clc1cc(Cl)n2nc(SCc3ccccc3)nc2c1`, 88 to 89 °C.
With `COC(=O)C1CCC2C3CCC4CC(O)C(O)CC4(C)C3C(NC3CCCCC3)CC12C` (stereo unspecified), the melting point was in the range of 199 to 202 °C.
Take `CN(C(=O)c1ccc([N+](=O)[O-])cc1)C1N(C)C(c2ccc(F)cc2)=NC1(C(F)(F)F)C(F)(F)F` (stereo unspecified): the melting point was 174 to 175 °C.
Turning to `CC(C)NC(=O)c1cccc(I)c1C(=O)Nc1cc(C(F)(F)F)nn1-c1ccccc1Cl`, the melting point lay in the range of 226 to 228 °C.
Take `CCOC(=O)c1cnc2c(NC(=O)c3c(Cl)cccc3Cl)cccc2c1C`: the melting point was in the range of 159 to 162 °C.
As for `O=C(O)CC1CCCCC1Oc1ccc(C(=O)c2ccc(Cl)cc2)cc1` (stereo unspecified), the melting point fell in the range of 130 to 132 °C.
Next, `O=C1CN(NC(=O)NC(C(=O)O)c2ccccc2)C(=O)N1` (stereo unspecified): 139 to 143 °C; `CC(O)=C(C#N)CC(=O)Nc1ccc(OCCCI)cc1`: 149 °C.
